This note sets out measurements from ChEMBL document CHEMBL4831493 (Eur J Med Chem, 2021).

The target in data set [1] is Glycogen synthase kinase-3 beta (Homo sapiens, UniProt P49841). Put plainly: Inhibition of human recombinant N-terminal His-tagged GSK3beta expressed in Escherichia coli using RRRPASVPPSPSLS RHS(pS)HQRR as substrate incubated for 30 mins in presence of ATP by Kinase-Glo reagent based luminescence assay.
For data set [2], the target named is T1, Acetylcholinesterase (Mus musculus) (UniProt P21836).
T1 sequence (whole entry): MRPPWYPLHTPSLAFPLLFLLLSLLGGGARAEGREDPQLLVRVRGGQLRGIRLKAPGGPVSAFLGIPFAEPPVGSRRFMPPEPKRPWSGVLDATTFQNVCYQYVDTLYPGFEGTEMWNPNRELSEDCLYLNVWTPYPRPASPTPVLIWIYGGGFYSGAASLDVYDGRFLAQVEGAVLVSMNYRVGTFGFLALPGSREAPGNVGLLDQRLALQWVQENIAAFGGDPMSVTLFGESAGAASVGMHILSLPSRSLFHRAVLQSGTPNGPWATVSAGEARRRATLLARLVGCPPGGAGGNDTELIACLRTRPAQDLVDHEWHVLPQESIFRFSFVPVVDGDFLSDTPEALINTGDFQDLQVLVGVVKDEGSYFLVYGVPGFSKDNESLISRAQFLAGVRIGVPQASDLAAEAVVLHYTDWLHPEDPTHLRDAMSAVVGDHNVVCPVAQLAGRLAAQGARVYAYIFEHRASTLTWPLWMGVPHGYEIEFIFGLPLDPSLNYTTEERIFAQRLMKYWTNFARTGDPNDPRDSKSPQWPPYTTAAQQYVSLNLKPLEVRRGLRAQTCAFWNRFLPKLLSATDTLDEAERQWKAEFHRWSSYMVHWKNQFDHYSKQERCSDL
To be noted: ICR, dose 10.0 mg/kg, time 1.5 hrs.

A short description of data set [3]: Cmax in Sprague-Dawley rat at 1 mg/kg, iv measured up to 24 hrs by LC-MS/MS analysis. The data set is classed as ADME, organism-based. Details: route intravenous, dose 1 mg/kg, time <=24. Conditions: in vivo.
A short description of data set [4]: Oral bioavailability in Sprague-Dawley rat at 10 mg/kg measured up to 24 hrs by LC-MS/MS analysis. The data set is classed as ADME, organism-based. Conditions: in vivo.
Data set [5] is described as follows: MRT (0 to infinity) in Sprague-Dawley rat at 10 mg/kg, po measured up to 24 hrs by LC-MS/MS analysis. The data set is classed as ADME, organism-based. Conditions: in vivo.
A short description of data set [6]: Ratio of drug level in brain to plasma of ICR mouse at 10 mg/kg, po measured after 1.5 hrs by LC/MS/MS analysis. The data set is classed as ADME, organism-based. To be noted: brain and plasma.
Data set [7] is described as follows: Half life in Sprague-Dawley rat at 1 mg/kg, iv measured up to 24 hrs by LC-MS/MS analysis. The data set is classed as ADME, organism-based. To be noted: in vivo.
Data set [8] is described as follows: Half life in Sprague-Dawley rat at 10 mg/kg, po measured up to 24 hrs by LC-MS/MS analysis. The data set is classed as ADME, organism-based. Conditions: in vivo.
Data set [9] addresses T1, Acetylcholinesterase (Mus musculus). Conditions: ICR, dose 10.0 mg/kg, time 1.5 hrs. The source holds these as a separate data set.
Data set [10] is described as follows: Ratio of drug level in brain to plasma of ICR mouse at 10 mg/kg, po measured after 1 hr by LC/MS/MS analysis. The data set is classed as ADME, organism-based. To be noted: brain and plasma.
Data set [11] is described as follows: Drug level in ICR mouse brain at 10 mg/kg, po measured after 1 hr by LC/MS/MS analysis. The data set is classed as ADME, organism-based. Conditions: read-out: Ct.
The target in data set [12] is Acetylcholinesterase (Electrophorus electricus, UniProt O42275). In words: Inhibition of electric eel recombinant AChE preincubated for 1 min in presence of DNTB followed by addition of acetylthiocholine iodide substrate and measured after 20 mins by Ellman's method.
Chain of Acetylcholinesterase (Electrophorus electricus, UniProt O42275) (O42275 whole entry): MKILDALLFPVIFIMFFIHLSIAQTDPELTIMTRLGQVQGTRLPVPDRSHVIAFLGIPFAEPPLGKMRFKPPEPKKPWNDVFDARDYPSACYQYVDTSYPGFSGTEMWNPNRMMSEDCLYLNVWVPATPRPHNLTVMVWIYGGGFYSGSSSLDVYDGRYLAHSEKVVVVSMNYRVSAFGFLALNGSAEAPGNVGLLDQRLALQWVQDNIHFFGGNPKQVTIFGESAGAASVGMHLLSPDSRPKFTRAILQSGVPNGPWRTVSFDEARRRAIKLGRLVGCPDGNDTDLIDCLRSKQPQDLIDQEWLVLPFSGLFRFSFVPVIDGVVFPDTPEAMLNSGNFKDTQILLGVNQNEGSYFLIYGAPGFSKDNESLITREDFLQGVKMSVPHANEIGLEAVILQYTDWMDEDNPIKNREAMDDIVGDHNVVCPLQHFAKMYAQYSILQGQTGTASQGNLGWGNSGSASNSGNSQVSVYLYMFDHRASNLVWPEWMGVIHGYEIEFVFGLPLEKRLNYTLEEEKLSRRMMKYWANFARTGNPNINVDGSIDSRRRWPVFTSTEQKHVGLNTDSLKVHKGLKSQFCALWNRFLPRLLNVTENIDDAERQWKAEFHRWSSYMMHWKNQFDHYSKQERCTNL
For data set [13], the target named is Acetylcholinesterase (Homo sapiens, UniProt P22303). Put plainly: Inhibition of human recombinant AChE preincubated for 1 min in presence of DNTB followed by addition of acetylthiocholine iodide substrate and measured after 20 mins by Ellman's method.
Chain of Acetylcholinesterase (Homo sapiens, UniProt P22303) (P22303 whole entry): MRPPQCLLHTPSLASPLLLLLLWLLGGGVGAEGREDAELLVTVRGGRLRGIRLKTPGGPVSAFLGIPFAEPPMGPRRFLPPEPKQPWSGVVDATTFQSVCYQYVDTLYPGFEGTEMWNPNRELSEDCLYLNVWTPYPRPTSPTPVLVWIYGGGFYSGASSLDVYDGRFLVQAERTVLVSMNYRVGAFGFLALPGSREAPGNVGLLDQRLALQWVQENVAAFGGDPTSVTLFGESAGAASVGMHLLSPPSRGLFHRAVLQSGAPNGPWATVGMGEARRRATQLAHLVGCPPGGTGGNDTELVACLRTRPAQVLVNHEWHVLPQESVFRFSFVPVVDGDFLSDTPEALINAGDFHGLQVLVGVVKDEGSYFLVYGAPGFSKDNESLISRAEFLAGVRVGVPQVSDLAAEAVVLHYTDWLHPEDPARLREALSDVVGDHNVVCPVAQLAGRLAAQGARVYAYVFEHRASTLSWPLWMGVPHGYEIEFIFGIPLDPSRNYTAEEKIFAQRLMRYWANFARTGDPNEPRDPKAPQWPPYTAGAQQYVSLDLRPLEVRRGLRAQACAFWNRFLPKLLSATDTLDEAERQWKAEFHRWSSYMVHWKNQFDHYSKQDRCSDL
A short description of data set [14]: Tmax in Sprague-Dawley rat at 10 mg/kg, po measured up to 24 hrs by LC-MS/MS analysis. The data set is classed as ADME, organism-based. To be noted: in vivo.
Data set [15] is described as follows: Effective permeability of the compound by PAMPA-BBB assay. The data set is classed as ADME. Conditions: read-out: Peff.
A short description of data set [16]: Drug level in ICR mouse plasma at 10 mg/kg, po measured after 1.5 hrs by LC/MS/MS analysis. The data set is classed as ADME, organism-based.
For a further data set, the system named is HT-22. Put plainly: Neuroprotective activity in mouse HT-22 cells assessed as glutamate-induced cell mortality at 6 uM preincubated for 1 hr followed by addition of glutamate and measured after 24 hrs (reference value: 58%). To be noted: time 25 hrs. The data set is classed as functional.
The nature of data set [17]: AUC (0 to infinity) in Sprague-Dawley rat at 1 mg/kg, iv measured up to 24 hrs by LC-MS/MS analysis. The data set is classed as ADME, organism-based. More on the design: route intravenous, dose 1 mg/kg, time <=24. Conditions: in vivo.
Data set [18] can be described thus: AUC (0 to infinity) in Sprague-Dawley rat at 10 mg/kg, po measured up to 24 hrs by LC-MS/MS analysis. The data set is classed as ADME, organism-based. Details: route oral, dose 10 mg/kg, time <=24. To be noted: in vivo.
Data set [19] is described as follows: MRT (0 to infinity) in Sprague-Dawley rat at 1 mg/kg, iv measured up to 24 hrs by LC-MS/MS analysis. The data set is classed as ADME, organism-based. Conditions: in vivo.
Data set [20] can be described thus: Drug level in ICR mouse brain at 10 mg/kg, po measured after 1.5 hrs by LC/MS/MS analysis. The data set is classed as ADME, organism-based. Conditions: read-out: Ct.
A short description of data set [21]: Drug level in ICR mouse plasma at 10 mg/kg, po measured after 1 hr by LC/MS/MS analysis. The data set is classed as ADME, organism-based.
Data set [22] is described as follows: Cmax in Sprague-Dawley rat at 10 mg/kg, po measured up to 24 hrs by LC-MS/MS analysis. The data set is classed as ADME, organism-based. Details: route oral, dose 10 mg/kg, time <=24. Conditions: in vivo.
The subject of a further data set is Mus musculus. Put plainly: Cognitive enhancing effect in mouse model of scopolamine-induced amnesia assessed as decrease in escape latency at 10 mg/kg/day, po measured by Morris water maze test. The data set is classed as functional, organism-based.

The source made the active and inactive calls. No cut-off for these calls is given here.

Chain of Glycogen synthase kinase-3 beta (P49841 whole entry): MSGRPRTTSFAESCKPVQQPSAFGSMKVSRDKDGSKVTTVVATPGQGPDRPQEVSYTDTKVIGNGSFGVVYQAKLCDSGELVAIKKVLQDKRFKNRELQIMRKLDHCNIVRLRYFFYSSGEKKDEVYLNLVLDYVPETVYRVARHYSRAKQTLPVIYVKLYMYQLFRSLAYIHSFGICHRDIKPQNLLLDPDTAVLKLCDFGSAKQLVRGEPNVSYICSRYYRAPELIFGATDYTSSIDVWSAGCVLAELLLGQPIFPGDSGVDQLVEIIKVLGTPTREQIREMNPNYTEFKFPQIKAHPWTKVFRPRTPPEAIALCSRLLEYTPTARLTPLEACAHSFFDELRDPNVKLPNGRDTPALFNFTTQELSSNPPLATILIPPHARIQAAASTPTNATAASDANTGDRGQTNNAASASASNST

For the molecule `O=C(Nc1cncc(OCC2CCN(Cc3ccccc3)CC2)c1)c1ccnc(NC(=O)C2CC2)c1`, the IC50 in data set [1] is 23 nM; at Acetylcholinesterase [12], 1.6 nM; on Acetylcholinesterase [13], 2.6 nM. Further, the inhibition in data set [2] turned out to be 73.1%; in data set [9], 48.3%. Also, the Cmax in data set [3] was 98.3 ng/mL; in data set [22] it was 47.1 ng/mL. This molecule also came in with a bioavailability in [4] of 24.8%. Also, the values for the MRT inf in data set [5] and in data set [19] were 8.9 h and 10 h, respectively. For the same molecule, the Kp at 1.5 h in data set [6] was found to be 0.695. Moreover, the half-life in data set [7] was 21.4 h; in [8], 6.3 h. Besides, the Kp at 1 h in [10] was 0.306. The concentration at 1 h was determined as 34.4 ng/g in data set [11] and 112 ng/g in data set [21]. Moreover, in data set [14], the Tmax came to 1.7 h. For the same molecule, the Papp in data set [15] came to 8.2 ×10⁻⁶ cm/s. Besides, the concentration at 1.5 h in [16] came out at 62.9 ng/g; in [20] it was 43.7 ng/g. In addition, the Activity with HT-22 is 66%. The AUC(0-inf) came to 152 ng·h/mL in [17] and 377 ng·h/mL in data set [18]. Besides, the outcome in the data set with Mus musculus was Active.
